Biological target: T1, TMV CP (tobacco mosaic virus coat protein) (Tobacco mosaic virus (vulgare), UniProt P69687)
T1 construct: labelled with Monolith NT Protein Labeling Kit Red
Test: microscale thermophoresis
Type: binding
Source text: microscale thermophoresis on TMV CP (tobacco mosaic virus coat protein)

T1 sequence (P69687 2-159 limits assumed): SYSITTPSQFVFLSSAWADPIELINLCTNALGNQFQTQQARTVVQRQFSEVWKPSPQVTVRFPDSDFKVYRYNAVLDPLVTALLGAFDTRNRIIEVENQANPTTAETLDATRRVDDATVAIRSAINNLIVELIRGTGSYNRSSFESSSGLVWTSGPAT

| Structure (SMILES) | Kd [µM] |
| --- | --- |
| COc1ccc(/C=C/C(=O)c2ccc(OCCSc3ncnc4ccccc34)cc2)cc1OC [M6, (E)-3-(3,4-Dimethoxyphenyl)-1-(4-(2-(quinazolin-4-ylthio)ethoxy)phenyl)prop-2-en-1-one] | 31.1 ± 1.83 |
| O=C(/C=C/c1ccc(Cl)cc1)c1ccc(OCCSc2ncnc3ccccc23)cc1 [M15] | 346 ± 23.9 |
| NC(=O)c1ncn([C@@H]2O[C@H](CO)[C@@H](O)[C@H]2O)n1 [Ribavirin] | 511 ± 33.1 |

— paper PMC6332188, “Synthesis, Antiviral Bioactivity of Novel 4-Thioquinazoline Derivatives Containing Chalcone Moiety” (Molecules, 2015)
